Assay results as given in patent publication US9433663B2, “Mobilization of hematopoietic stem cells” (Children's Hospital Medical Center, priority 2008, dated 2016).

Columns and labels:
[1] = test system: Fancc−/− mice; experiment: Example 10 preparative regimen for BM transplantation in Fancc−/− mice; type: in vivo; conditions: preconditioning before BM transplantation
Procedure: Four preparative regimens before BM transplantation on Fancc−/− mice are used to evaluate the capacity of CASIN as a preconditioning agent: (1) Control group; (2) CY group: a single dose of 40 mg/kg CY intraperitoneally; (3) CASIN group: 2.5 mg/Kg; (4) combination of CASIN and CY: one injection of CASIN is given in combination with reduced doses of CY.
Fancc−/− mice are preconditioned with each of these four regimens, and 4×10^7 BM cells from congenic strain mice are transplanted into preconditioned mice by tail vein injection. Mice that underwent transplantation are bled every four weeks to monitor the chimerism of donor-derived cells in PB. And at 3 m, the mice are sacrificed to evaluate the engraftment of donor-derived cells in BM.

[2] = target: Rho (Homo sapiens, UniProt P61586); experiment: nucleotide exchange: Large-induced exchange of mant-GDP with Rho; type: biochemical
Source text: For example, even at 10 times the IC50 of Cdc42, a 50% inhibition of the association of mant-GDP with Rac or Rho was not achieved.

[3] = test system: primitive human hematopoietic cells (CD45+CD34+CD38−); experiment: Example 7 mobilization of human HSC/Ps in NOD-SCID model; type: in vivo, NOD-SCID mice transplanted with CD34+ HCB cells; conditions: flow cytometry
Source text: The mobilization effects of CASIN on human HSC/Ps using an established preclinical in vivo mouse model are examined. […] This reconstituting population of human hematopoietic cells is operationally defined as SCID-repopulating cells (SRCs), and accordingly represents candidate human HSCs.
Primitive CD34+ human neonatal umbilical cord blood cells are transplanted into sublethally irradiated recipients. Around 10-week posttransplantation, human multilineage repopulating capacity of transplanted HSCs is examined using flow cytometry for surface markers representing human lymphoid (CD19, CD20), myeloid (CD15, CD33) and primitive (CD34, CD38) hematopoietic subsets. […] To further characterize the effect of CASIN on mobilization of primitive human HSC mobilization, progenitor potential is determined using functional clonogenic assays of hematopoietic colony-forming units (CFUs) derived from HPCs33. Numbers of CFUs are counted posinjection of CASIN treatment, in comparison with control medium and G-CSF administration.

[4] = test system: human CD34^+ umbilical cord blood cells; experiment: migration of human CD34+ HCB cells; type: cell-based; conditions: 5 μM
Procedure: FIG. 4C. relative migration of human CD34^+ cord blood cells in the presence of CASIN at dose of 5 μM in comparison to that of control.
To begin to study potential utility of CASIN in human hematopoietic stem cell mobilization, a series of cellular assays were carried out to determine the effects on human CD34^+ umbilical cord blood cells (HCBs). […] The effects of CASIN on human hematopoietic cell mobilization was therefore tested using a well established preclinical in vivo model (NOD/SCID-Hcb) of human hematopoietic function, where fresh CD34^+ hCB cells were transplanted into sub-lethally irradiated NOD/SCIDs by intrafemoral injection, and repopulated and maintained human hematopoietic reconstitution in the bone marrow of NOD/SCID recipient mice (FIG. 9b, FIG. 11) (Larochelle, A. et al. Nat Med 2, 1329-1337 (1996); Bhatia, M., et al. Proc Natl Acad Sci USA 94, 5320-5325 (1997)). Intravenous injections of CASIN were applied when human cells were well engrafted in the NOD/SCID recipients.

[5] = test system: N-RasMA93 cells; experiment: adhesion of N-RasMA93 leukemia cells via CH296; type: cell-based, human; conditions: in vitro
Procedure: FIG. 5C. Adhesion of leukemia cells via CH296 without or with CASIN pre-treatment at doses of 5 and 10 μM was examined.
Like normal HSCs, their malignant counterpart, leukemia initiating cells (LICs) reside in their BM niches that provide the structural and physiological conditions supporting their survival and growth. LICs are resistant to traditional chemotherapy by interacting with their BM microenvironment, which are the culprits of leukemia relapses after a period of remission induced by chemotherapy. Detachment of LICs from their niche by CASIN would be a valuable supplementary therapy to the traditional cancer therapies (e.g., chemotherapies). First of all, in vitro effects of CASIN were examined in adhesion, migration, and F-actin polymerization of LICs, each of which is independently important for the retention of LICs in BM niches. Retroviral transduction of an MLL-AF9 fusion cDNA together with N-Ras oncogene into normal human CD34^+cord blood cells led to the establishment of cultures of N-Ras-MA93 cells that can initiate acute myeloid leukemia in NOG mice. […] To address it, a human AML model was set up by transplanting N-RasMA93 cells into NOG mice intravenously.

[6] = test system: Lin^− BM cells; experiment: FACS analysis of F-actin in Lin− BM cells; type: cell-based, murine; conditions: column-selected Lin^− BM cells, dose-dependent pattern
Source text: To shed light on potential roles of CASIN in HSPC mobilization, the effects of CASIN on Cdc42-related cellular functions was studied, including adhesion, migration, and F-actin polymerization of progenitor cells in 32D myeloid progenitors. […] SDF-1α stimulation causes a reorganization of F-actin into a cortical ring around the cells. […] Thirdly, to gain further insight into cellular specificity and efficacy of CASIN, and also to rule out possible toxic effects by CASIN, Cdc42-involved BM progenitor cell functions were examined, including proliferation, adhesion, migration, and F-actin polymerization, in Cdc42^+/+ cells in parallel with Cdc42^−/− cells. In line with additional studies in a Cdc42 conditional knockout mouse model as described herein, Cdc42^−/− LDBM cells have increased CFU-forming progenitors compared to those of Cdc42^+/+.

Sequence of Rho (P61586 whole entry): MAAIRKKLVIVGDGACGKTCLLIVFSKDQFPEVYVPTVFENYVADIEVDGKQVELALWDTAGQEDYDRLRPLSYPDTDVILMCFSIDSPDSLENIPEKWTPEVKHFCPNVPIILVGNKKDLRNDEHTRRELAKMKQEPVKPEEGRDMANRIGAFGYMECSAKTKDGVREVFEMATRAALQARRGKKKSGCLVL

## OCCNC1CCCc2c1[nH]c1ccc(-c3ccccc3)cc21 (stereo not shown) [CASIN]
[1]
  repopulation and engraftment of donor derived cells in PB and BM of Fancc−/− recipient mice: reasonable repopulation and engraftment of donor derived cells
[2]; FIG. 6
  Large induced nucleotide exchange of mant-GDP with Rho: did not affect
[2]; at 10 times the IC50 of Cdc42
  inhibition of the association of mant-GDP with Rho: < 50%
[3]
  frequency and total number of primitive human hematopoietic cells (CD45+CD34+CD38−) in peripheral blood: increases significantly
[4]
  migration activity of human progenitors: significantly dampened
[5]
  adhesion capacity of N-RasMA93 cells: not affected significantly
[6]
  F-actin reorganization in response to SDF-1α: impaired
